Laboratory results reported in patent US11931335B2, “Enhancing autophagy or increasing longevity by administration of urolithins or precursors thereof” (Amazentis SA, priority 2012, dated 2024).
“Also recorded” adds a separate entry of the source. Like-named read-outs stand apart in the source and are kept apart here.

What was measured:
[1] = tested on: aak-2(ok524) mutant C. elegans; assay type: in vivo; conditions: aak-2 (o524); for Lifespan extension compared to control (%): 50 μM UA vs 1% DMSO
Experimental: Lifespan assays were performed with (A) wild-type (N2), (B) sir-2.1(ok434) mutant, (C) aak-2(ok524), (D) daf-16(mu86), (E) eat-2(ad465) and (F) daf-2(e1370) mutant strains of C. elegans maintained during their full life on plates supplemented with either 50 μM of urolithin A or with a control treatment and seeded with OP50 bacteria. Control plates without urolithin A contained an equivalent concentration of DMSO. Worm lifespan assays were performed at 20° C.
aak-2/AMPK: aak-2 encodes the mammalian homolog of the AMP-dependent kinase AMPK in C. elegans.

[2] = tested on: undifferentiated C2C12 mouse myoblasts; test: LC3B flow cytometry in C2C12 myoblasts; assay type: cell-based; conditions: for LC3B expression (LC3B-FITC fluorescence): 10 μM, 50 μM and 100 μM, 24 hours, FIG. 25
Experimental: To determine the ability of urolithin A to induce autophagy in mouse muscle cells, undifferentiated C2C12 mouse myoblasts were seeded in T25 flasks and incubated overnight. Cells were incubated in 5% CO2 at 37° C. These cells were treated with one of the urolithins-urolithin A (UA), urolithin B (UB), urolithin C (UC) or urolithin D (UD)—dissolved in a 0.1% solution of DMSO for 24 hours. In one experiment UA, UB, UC and UD were dosed at a concentration of 100 μM for C2C12 myoblast treatment. In a separate study, C2C12 myoblasts were incubated at increasing concentrations of UA (10 μM, 50 μM and 100 μM). For each experiment a control culture was treated with 0.1% DMSO for the same period and served as the untreated control. In the final 30 minutes of incubation, lysosome degradation inhibitor was added to the culture. The cells were then washed with phosphate buffer solution and then treated with a 1% solution of trypsin enzyme to remove the adhesive cells from the cell culture dishes. The cells were then treated with EMD Millipore selective permeabilization reagent to permeabilize the cells so as to make the internal cellular proteins accessible to antibody treatment. Cells were then incubated with antibody to LC3B according to kit protocol (EMD Millipore FlowCellect™ Autophagy LC3 Antibody-based Assay Kit (Cat no. FCCH100171)). The cells were then washed and resuspended in the kit assay buffer. The resulting cells were then run through a flow cytometer and LC3B-FITC fluorescence was quantified to measure the level of LC3B in C2C12 cells for the various treatments. When cells undergo autophagy their intracellular levels of LC3-II increase which is detected by this method. This autophagy can be detected by fluorescent antibody labeling of LC3B, which can be measured quantitatively using flow cytometry. An increase in cellular autophagy is reflected by an increasing signal in the histogram of LC3B FITC.

[3] = tested on: C. elegans fed bec-1 RNAi; test: Lifespan with RNAi against bec-1; assay type: in vivo; conditions: 50 μM; vs empty vector; FIG. 10C
Experimental: Lifespan tests were performed as described. Mouchiroud L et al. (2011) Aging Cell 10:39-54. Briefly, worms were observed using a Nikon SMZ1500 stereomicroscope (Nikon, Melville, NY, USA). Briefly, 10 L4 worms were transferred on plates containing NGM medium with vehicle (DMSO 0.1%, final concentration) or urolithin A dissolved in DMSO (final concentration 50 μM) and seeded with E. coli RNAi clones as indicated. After 3 days (corresponding to day 0), newly developed 60-100 L4 worms were used per condition, scored and transferred to fresh plates every 3 days starting from day 1 (young adult worms). All lifespan experiments were performed at 20° C.
Survival analyses were performed using the Kaplan Meier method and the significance of differences between survival curves calculated using the log rank test. Differences between two groups were assessed using two-tailed t-tests. Analysis of variance, assessed by Bonferroni's multiple comparison test, was used when comparing more than two groups. The statistical software used was GraphPad Prism 5 (GraphPad Software, Inc.) and all p-values <0.05 were considered significant.
Gene silencing was carried out as previously described by using the RNA interference (RNAi) process. Mouchiroud L et al. (2011) Aging Cell 10:39-54. In C. elegans, RNAi is made by feeding. […]

Structure (SMILES): O=c1oc2cc(O)ccc2c2ccc(O)cc12 [Urolithin A, urolithin A]
- Median lifespan ([1]; 50 μM UA): 18 days
- Lifespan extension compared to control (%) [1]: 12.5%
- Lifespan extension compared to control (%) ([1]; listed as UA): +12.5%
- LC3B expression (LC3B-FITC fluorescence) [2]: dose dependent
- LC3B expression (LC3B-FITC fluorescence) ([2]; listed as UA): dose response
- LC3B signal (shift of the histogram) ([2]; 100 μM, 24 hrs, FIG. 26, listed as UA): increasing signal of LC3B; also recorded: increase in autophagy
- lifespan extension by urolithin A under bec-1 RNAi [3]: suppressed; also recorded: totally suppress the lifespan phenotype
